Data taken from patent US6838481B1, “Skin whitener” (LG Household & Health Care Ltd., priority 1998, dated 2005).

Key:
[1] = test system: B-16 mouse melanoma cells; assay: Melanin formation inhibiting effects of EL-1 at the cellular level; assay type: cell-based; conditions: for Melanin formation amount: cultured 3 days, repetition number = 3; for Inhibition ratio (%): melanin formation relative to control; for Cell toxicity: final conc. 10 μg/ml
Procedure: The whitening effect was tested at the cellular level by adding EL-1 obtained from the above EXAMPLES 1 to 7 to a cultured solution of B-16 mouse melanoma cells (Lotan R., Lotan D. Cancer Res. 40:3345-3350, 1980) as follows.
The EL-1 obtained in EXAMPLES 1 to 7 was added to a culture solution of B-16 mouse melanoma cells so that the final concentrations become 1 μg/ml, 5 μg/ml and 50 μg/ml respectively, and they were cultured for 3 days. After trypsin was added to the cells and the solution was removed from the culture container and centrifuged, melanin was extracted. 1 ml of sodium hydroxide solution (1 N concentration) was added to the extracted melanin and boiled for about 10 minutes to dissolve the melanin. The test was carried out in a way whereby the formed melanin amount was represented in absorbance per unit cell number, expressed as A400/10^6 cells by measuring the absorbance at 400 nm. After repeating this test 3 times, the melanin formation amount relative to the control was calculated as an inhibition ratio (%) using the average values.

[2] = test system: B-16 mouse melanoma cells; assay: as above; assay type: cell-based; conditions: concentration of 50 μg/ml

| Compound | Melanin formation amount ([1]; final conc. 1 μg/ml) [A400/10^6 cells] | Inhibition ratio (%) ([1]; final conc. 1 μg/ml) | Melanin formation amount ([1]; final conc. 5 μg/ml) [A400/10^6 cells] | Inhibition ratio (%) ([1]; final conc. 5 μg/ml) | Melanin formation amount ([1]; final conc. 50 μg/ml) [A400/10^6 cells] | Inhibition ratio (%) ([1]; final conc. 50 μg/ml) | Melanin synthesis inhibiting effect ([1]; mouse B-16 melanoma cells treated) | Cell toxicity [2] | Cell toxicity [1] | Cell toxicity ([1]; listed as hydroquinone) |
| --- | --- | --- | --- | --- | --- | --- | --- | --- | --- | --- |
| C=C1CCC2C(/C=C(\C)C(=O)C3(OC(C)=O)CC(C)C(OC(=O)c4ccccc4)C3C1OC(C)=O)C2(C)C (stereo not drawn) [EL-1, 5,15-diacetyl-3-benzoyllathyrol] | 0.032 ± 0.001 | 28 | 0.019 ± 0.003 | 57 | 0.007 ± 0.001 | 85 | very strong melanin synthesis inhibiting effect | does not show cell toxicity | – | – |
| Oc1ccc(O)cc1 [Hydroquinone, reference compound] | 0.025 ± 0.002 | 43 | – | – | – | – | – | – | Cell extinction | high cell toxicity |
